Target: T1, tyrosinase (Homo sapiens, UniProt P14679)
T1 sequence (P14679 19-529): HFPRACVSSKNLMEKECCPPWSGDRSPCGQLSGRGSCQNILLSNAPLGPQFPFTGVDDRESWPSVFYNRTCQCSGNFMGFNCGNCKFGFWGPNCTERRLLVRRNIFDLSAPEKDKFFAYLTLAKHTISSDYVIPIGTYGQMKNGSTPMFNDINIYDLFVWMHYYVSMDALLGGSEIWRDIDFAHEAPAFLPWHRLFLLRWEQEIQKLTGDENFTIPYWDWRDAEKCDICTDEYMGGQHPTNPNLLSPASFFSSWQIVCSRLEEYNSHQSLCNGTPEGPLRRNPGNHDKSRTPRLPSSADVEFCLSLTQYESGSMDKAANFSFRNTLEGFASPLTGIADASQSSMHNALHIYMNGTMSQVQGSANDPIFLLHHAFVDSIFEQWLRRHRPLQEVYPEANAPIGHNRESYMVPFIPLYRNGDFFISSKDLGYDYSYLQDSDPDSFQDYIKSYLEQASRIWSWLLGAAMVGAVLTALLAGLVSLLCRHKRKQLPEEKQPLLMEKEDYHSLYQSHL
Assay: Tyrosinase inhibition
Type: biochemical
Settings: 0.1 wt % active concentration; compared to 0.1 wt % kojic acid

SMILES	tyrosinase inhibition activity compared to that of kojic acid
COc1cc(/C=[N+](\[O-])C(C)C)ccc1O [VAN-IPHA, (Z)—N-(4-hydroxy-3-methoxybenzylidine)propan-2-amine oxide]	negligible
CC(C)/[N+]([O-])=C/c1ccc(O)cc1 [pHBz-IPHA, (Z)—N-(4-hydroxybenzylidene)propan-2-amine oxide]	about 60%
